Results from paper PMC12356538, “Targeting the SARS-CoV‑2 RNA Translation Initiation Element SL1 by Molecules of Low Molecular Weight” (Journal of the American Chemical Society, 2025).
“And” between values parts separate entries of the source, which are not always exact repeats. Equal entries are not always repeated. “Also recorded” adds a separate entry of the source. Where two headings read alike, the source gives them in different places.

How the values were obtained:
[1] = pH 6.2
[2] = molecular target: SL1 wt RNA; assay: NMR-based KD estimation, ligand-detected 1D-1H titration; type: binding, SARS-CoV-2
[3] = tested on: SL1 RNA; assay: RNA-detected NMR binding site mapping (2D-1H,1H-TOCSY and 1D-1H); design: species or system SARS-CoV-2; conditions: for 1H,1H CSPs [ppm] C15H5-H6 / 1H,1H CSPs [ppm] C16H5-H6 / 1H,1H CSPs [ppm] C19H5-H6 / 1H,1H CSPs [ppm] C20H5-H6 / 1H,1H CSPs [ppm] C21H5-H6 / 1H,1H CSPs [ppm] C28H5-H6 / 1H,1H CSPs [ppm] C32H5-H6 / 1H,1H CSPs [ppm] C33H5-H6 / 1H,1H CSPs [ppm] C34H5-H6 / 1H,1H CSPs [ppm] U9H5-H6 / 1H,1H CSPs [ppm] U10H5-H6 / 1H,1H CSPs [ppm] U11H5-H6 / 1H,1H CSPs [ppm] U13H5-H6 / 1H,1H CSPs [ppm] U17H5-H6 / 1H,1H CSPs [ppm] U18H5-H6 / 1H,1H CSPs [ppm] U25H5-H6: 2D TOCSY, RNA 150 μM, compound 1 mM, 298 K; for 1H CSPs [ppm] A12H2 / 1H CSPs [ppm] A29H2: RNA-detected 1D-1H
[4] = tested on: SL1 Δbulge-Nanoluciferase mRNA; type: biochemical, SARS-CoV-2
[5] = tested on: β-Globin-Nanoluciferase mRNA; assay: Cell-free translation assay in rabbit reticulocyte lysate, Nanoluciferase readout; type: biochemical; conditions: 0.2 μM mRNA, 2 μM compound
[6] = tested on: SARS-CoV-2 SL1 RNA (SL1 wt); type: binding; conditions: for wLOGSY factor / T2 reduction [%] / CSP [Hz]: 10 μM SL1 wt, 200 μM ligand; for wLOGSY factor / T2 reduction [%]: pH 6.2; for T2 reduction [%]: CPMG 100 vs 5 ms; for Rank: FBS ranking from summed ranks of CSP, wLOGSY and T2 results; for Rank / Normalized FBS score / 1 - normalized FBS score / FBS score: SL1 wt; for 1 - normalized FBS score: 0 lowest, 1 highest score; for FBS score: radar chart values; for CSP [Hz]: ligand 1H CSP, [RNA]:[ligand] 1:20, pH 6.2
[7] = tested on: SL1 Δbulge RNA; type: binding, SARS-CoV-2
[8] = tested on: SL1 (wt)-Nanoluciferase mRNA; type: biochemical, SARS-CoV-2
[9] = tested on: SL1 RNA labeled with 2AP at position A27; assay: 2-Aminopurine fluorescence binding assay; design: species or system SARS-CoV-2; conditions: 0.5 μM 2AP-SL1, compound 0-400 μM, 25 °C, pH 6.2
[10] = Suppl. Table 7, ligand constant at 100, SL1 wt RNA concentration 0-250, read-out: KDest
[11] = ligand 100 μM, SL1 RNA 0 to 200 or 250 μM, 298 K, 600 MHz, pH 6.2, read-out: KD est

## CC(=O)c1ccc(NC(=O)CN2CCCC2)cc1 [B]
[1]
  solubility, in words: precipitation
[2]; [10]
  Kd: 150 µM
[2]; [11]
  Kd: 150 ± 46 µM
[3]
  1H,1H CSPs [ppm] C15H5-H6: 0.0208 ppm
  1H,1H CSPs [ppm] C16H5-H6: 0.0120 ppm
  1H,1H CSPs [ppm] C19H5-H6: 0.0092 ppm
  1H,1H CSPs [ppm] C20H5-H6: 0.0030 ppm
  1H,1H CSPs [ppm] C21H5-H6: 0.0058 ppm
  1H,1H CSPs [ppm] C28H5-H6: 0.0263 ppm
  1H,1H CSPs [ppm] C32H5-H6: 0.0336 ppm
  1H,1H CSPs [ppm] C33H5-H6: 0.0110 ppm
  1H,1H CSPs [ppm] C34H5-H6: 0.0021 ppm
  1H,1H CSPs [ppm] U9H5-H6: 0.0063 ppm
  1H,1H CSPs [ppm] U10H5-H6: 0.0122 ppm
  1H,1H CSPs [ppm] U11H5-H6: 0.0220 ppm
  1H,1H CSPs [ppm] U13H5-H6: 0.0256 ppm
  1H,1H CSPs [ppm] U17H5-H6: 0.0061 ppm
  1H,1H CSPs [ppm] U18H5-H6: 0.0064 ppm
  1H,1H CSPs [ppm] U25H5-H6: 0.0085 ppm

## COc1ccc2nc(NC(=O)CN(C)C)sc2c1 [A.2]
[4]
  effect on translation of SL1 Δbulge mRNA, in words: increased translation efficiency; also recorded: about half as pronounced as that for SL1 wt
[1]
  solubility, in words: increased solubility
[5]
  effect on translation of β-globin mRNA, in words: increased translation efficiency; also recorded: boost
[6]
  wLOGSY factor: 0.72
  T2 reduction [%]: 79.26%
  Rank: 30
  Normalized FBS score: 0.81
  1 - normalized FBS score: 0.19
  FBS score: 30
  CSP [Hz]: 12.23 Hz
[2]; [10]
  Kd: 144 µM
[2]; [11]
  Kd: 144 ± 31 µM
[7]
  CSP [Hz]: 5.52 Hz
  Normalized abs. CSP SL1 wt - CSP SL1 Δbulge (normalized selectivity score): 1.00
  Rank: 5
  T2 reduction [%]: 67.46%
  abs. CSP SL1 wt - CSP SL1 Δbulge: 6.71
  wLOGSY factor: 0.00
[8]
  Normalized inhibition rate (normalized activity score): 0.73
  SL1 wt inhibition rate [%]: 36.23%
  effect on translation of SL1 wt mRNA, in words: significant and selective inhibition; also recorded: highest inhibition efficiency
  time-resolved SL1-driven translation, in words: more subtle temporal effects
[9]
  affinity trend compared to lead A: increased affinity
[3]
  binding site / selectivity for the bulge from CSP and LB mapping, in words: bound the bulge less selectively
  1H,1H CSPs [ppm] C16H5-H6: 0.0166 ppm
  1H,1H CSPs [ppm] C19H5-H6: 0.0190 ppm
  1H,1H CSPs [ppm] C20H5-H6: 0.0143 ppm
  1H,1H CSPs [ppm] C21H5-H6: 0.0230 ppm
  1H,1H CSPs [ppm] C28H5-H6: 0.0813 ppm
  1H,1H CSPs [ppm] C33H5-H6: 0.0085 ppm
  1H,1H CSPs [ppm] C34H5-H6: 0.0081 ppm
  1H,1H CSPs [ppm] U9H5-H6: 0.0247 ppm
  1H,1H CSPs [ppm] U10H5-H6: 0.0231 ppm
  1H,1H CSPs [ppm] U11H5-H6: 0.0462 ppm
  1H,1H CSPs [ppm] U13H5-H6: 0.0110 ppm
  1H,1H CSPs [ppm] U17H5-H6: 0.0143 ppm
  1H,1H CSPs [ppm] U18H5-H6: 0.0071 ppm
  1H,1H CSPs [ppm] U25H5-H6: 0.0361 ppm
  1H CSPs [ppm] A12H2: 0.1420 ppm
  1H CSPs [ppm] A29H2: 0.0190 ppm

## CNC(=O)Nc1nc2ccc(OC)cc2s1 [A]
[4]
  effect on translation of SL1 Δbulge mRNA, in words: increased translation efficiency
[1]
  solubility, in words: solubility issues
[5]
  effect on translation of β-globin mRNA, in words: increased translation efficiency
[6]
  wLOGSY factor: 0.78
  T2 reduction [%]: 66.95%
  Rank: 37
  Normalized FBS score: 1.00
  1 - normalized FBS score: 0.00
  FBS score: 37
  CSP [Hz]: 3.96 Hz
[2]; [10]
  Kd: 136 µM
[2]; [11]
  Kd: 136 ± 34 µM
[7]
  CSP [Hz]: 0.00 Hz
  FBS result (CSP, wLOGSY, T2 reduction) in words: no effects
  Normalized abs. CSP SL1 wt - CSP SL1 Δbulge (normalized selectivity score): 0.59
  abs. CSP SL1 wt - CSP SL1 Δbulge: 3.96
[8]
  Normalized inhibition rate (normalized activity score): -0.03
  SL1 wt inhibition rate [%]: -1.66%
  time-resolved SL1-driven translation, in words: more subtle temporal effects
[3]
  binding site / selectivity for the bulge from CSP and LB mapping, in words: binds selectively to the bulge
  1H,1H CSPs [ppm] C15H5-H6: 0.0081 ppm
  1H,1H CSPs [ppm] C16H5-H6: 0.0050 ppm
  1H,1H CSPs [ppm] C19H5-H6: 0.0050 ppm
  1H,1H CSPs [ppm] C20H5-H6: 0.0050 ppm
  1H,1H CSPs [ppm] C21H5-H6: 0.0095 ppm
  1H,1H CSPs [ppm] C28H5-H6: 0.0502 ppm
  1H,1H CSPs [ppm] C32H5-H6: 0.0124 ppm
  1H,1H CSPs [ppm] C33H5-H6: 0.0042 ppm
  1H,1H CSPs [ppm] C34H5-H6: 0.0054 ppm
  1H,1H CSPs [ppm] U9H5-H6: 0.0117 ppm
  1H,1H CSPs [ppm] U10H5-H6: 0.0179 ppm
  1H,1H CSPs [ppm] U11H5-H6: 0.0824 ppm
  1H,1H CSPs [ppm] U13H5-H6: 0.0242 ppm
  1H,1H CSPs [ppm] U17H5-H6: 0.0100 ppm
  1H,1H CSPs [ppm] U18H5-H6: 0.0010 ppm
  1H,1H CSPs [ppm] U25H5-H6: 0.0160 ppm
  1H CSPs [ppm] A12H2: 0.0041 ppm

## CNC(=O)Nc1nc2c(O)cc(O)cc2s1 [A.13]
[4]
  inhibition rate: ~0.5%
[5]; relative to untreated control
  inhibition rate: ~10%
[6]
  wLOGSY factor: 0.33
  T2 reduction [%]: 100.00%
  Rank: 25
  Normalized FBS score: 0.68
  1 - normalized FBS score: 0.32
  FBS score: 25
  CSP [Hz]: 4.11 Hz
[2]; [10]
  Kd: 312 µM
[7]
  FBS result (CSP, wLOGSY, T2 reduction) in words: severe line broadening; signal disappearance; also recorded: complete loss of ligand peaks
[8]
  Normalized inhibition rate (normalized activity score): 1.00
  SL1 wt inhibition rate [%]: 49.50% and ~50%
  effect on translation of SL1 wt mRNA, in words: significant and selective inhibition; also recorded: highest inhibition efficiency; also recorded: greatest translation inhibition
  time-resolved SL1-driven translation, in words: most pronounced delay and suppression
[9]
  affinity trend compared to lead A: increased affinity
[3]
  1H,1H CSPs [ppm] C15H5-H6: 0.0030 ppm
  1H,1H CSPs [ppm] C16H5-H6: 0.0032 ppm
  1H,1H CSPs [ppm] C19H5-H6: 0.0022 ppm
  1H,1H CSPs [ppm] C20H5-H6: 0.0022 ppm
  1H,1H CSPs [ppm] C21H5-H6: 0.0045 ppm
  1H,1H CSPs [ppm] C28H5-H6: 0.0278 ppm
  1H,1H CSPs [ppm] C32H5-H6: 0.0082 ppm
  1H,1H CSPs [ppm] C33H5-H6: 0.0032 ppm
  1H,1H CSPs [ppm] C34H5-H6: 0.0087 ppm
  1H,1H CSPs [ppm] U9H5-H6: 0.0067 ppm
  1H,1H CSPs [ppm] U10H5-H6: 0.0112 ppm
  1H,1H CSPs [ppm] U11H5-H6: 0.0702 ppm
  1H,1H CSPs [ppm] U13H5-H6: 0.0209 ppm
  1H,1H CSPs [ppm] U17H5-H6: 0.0051 ppm
  1H,1H CSPs [ppm] U18H5-H6: 0.0022 ppm
  1H,1H CSPs [ppm] U25H5-H6: 0.0020 ppm
  1H CSPs [ppm] A12H2: 0.0630 ppm
  1H CSPs [ppm] A29H2: 0.0190 ppm
